Data as given in patent US20250042968A1, “EPHRIN LIGAND MIMETIC PEPTIDES FOR THE TREATMENT OF NEURODEGENERATIVE DISEASES” (University of Miami, priority 2022, published 2025).
“Also recorded” adds a separate entry of the source.

How the values were obtained:
Type in all cases: cell-based
[1] = test system: isolated mouse RGCs; test: Neurite outgrowth, long-term (6 days), Incucyte Zoom live cell imaging
Method: Mouse retinal ganglion cells (RGC): Mouse R GCs were isolated as follows. […] Following dissociation, macrophage and endothelial cells were removed from the cell suspension by panning with the anti-macrophage antiserum (Accurate Chemical, Westbury, NY). Finally, RGCs were immunopanned in plates containing the antibody against Thy1.2 and were then released by incubation with trypsin solution. RGCs were grown on poly-L-lysine coated plates in serum-free Neurobasal media (Invitrogen, Carlsbad, CA), supplemented with B-27 supplement, CNTF (10 ng/ml), and BDNF (10 ng/ml).
mRGCs were used to analyze dendrite sprouting, axonal polarization and extension, and ephrin receptor phosphorylation following treatment with xEFN peptides. RGCs were isolated as described above and plated onto 24 well plates at a concentration of 4×10^4 cells/well for short-term (48 h) experiments, or into 96-well plates at a concentration of 1,000 cells/well for long-term (6 days) experiments in an Incucyte Zoom (Essen Biosciences) instrument for live cell imaging. […] For the short-tem experiment, cells were fixed in 4% paraformaldehyde for 5 minutes, permeabilized using 0.05% Triton X-100, blocked with 5% fetal bovine serum, and incubated with primary antibody against Tubulin Beta 3 Class III (TUBB3) overnight at 4° C. Cells were then washed 3×5 min with PBS and incubated with AlexaFluor488 secondary antibody for 2 h at room temperature. Cells were mounted using SlowFade Gold Antifade mounting media with DAPI (ThermoFisher) and imaged using an EVOS FL automated fluorescent microscope (ThermoFisher). Dendrite measurements and analysis was performed by a blinded investigator using ImageJ software and the Sholl analysis plugin. […] Neurite sprouting and extension were quantified using the automated Incucyte Zoom NeuroTrack Processing algorithm for real-time, label-free neurite segmentation and quantitation (FIG. 13).

[2] = test system: isolated mouse RGCs; test: Immunofluorescent staining of TUBB3 and F-actin in isolated mouse RGCs; conditions: 1 μM, 4 days
Source text: (§1) In order to assess the effect of xEFN peptide supplementation on Eph-receptor modulation, various in vitro assays were employed on isolated mouse RGCs. […] Similarly, xEFN_RBD1, and 3 inhibited the phosphorylation of Rac1 by pre-clustered ephirnA5 ligand stimulation. […] TUBB3 is a marker specific for neuronal microtubules and functions as a neuronal-specific marker.

[3] = test system: human fetal brain-derived neural stem cells (hNSC); test: hNSC growth on ephrin-ligand repulsive substrates; conditions: 500 nM, 5-day culture, over control cultures
Method: Fetal brain-derived neural stem cells (hNSC): In order to evaluate the effect of xEFN peptides on human neuronal cells, StemPro hNSC were purchased from ThermoFisher Scientific (Cat. no. A15654) and cultured according to the manufacturer's recommended protocol. Briefly, cells were grown in non-adherent neurosphere suspension cultures in StemPro NSC serum-free media (NSC-SFM) (Cat. no. A10509-01) supplemented with 2 mM GlutaMAX-I supplement, 6 U/mL heparin, and 200 μM ascorbic acid (Sigma-Aldrich, Cat. no. A8960). Culture media was changed every 2 days and cells were passaged every 7 days as undifferentiated hNSC. To induce differentiation into neuronal cells, hNSC neurospheres were dissociated into single-cell suspensions using StemPro Accutase for 5 minutes at 37° C. followed by mechanical pipetting. hNSC were then plated onto Geltrex-coated culture vessels at a concentration of 2×10^4 cells/cm^2 in neuronal differentiation media consisting of NSC media without bFGF or EGF and supplemented with B-27 supplement (ThermoFisher Scientific) for 3 days prior to performing further in vitro assays.
Glial-bound efn ligands have been associated with mediating the major repulsive milieu for neuronal process in the CNS. […] Moreover, assays on the repulsive nature of efn ligand-presenting surfaces have been a mainstay in axonal guidance studies for many decade. The use of xEFN peptides to antagonize this repulsive signaling from efn ligand substrates was evaluated on human fetal brain-derived neural stem cells (hNSC).
Recombinant Efn ligands (A2, A4, and B3) containing a His-Tag were purchased from R&D Systems, and were pre-clustered using an anti-His antibody (Genetex) for 30 min. The pre-clustered Efn ligands, or anti-his antibody alone, (control) were then mixed with laminin from human placenta (Sigma-Aldrich) in suspension and used to coat the growth surface of a 24-well plate. […] The entire wells were then scanned using an EVOS FL Auto fluorescent microscope and the images were analyzed in the ImageJ software to calculate cell coverage area.

[4] = molecular target: T1, EphA2 (Mus musculus, UniProt Q03145); test: Immunohistochemistry of TUBB3 and pEphA2 receptor in RGCs; conditions: 500 nM, 4 days
T1 construct: endogenous in cells; host or cells: primary mouse retinal ganglion cells (p8-10 pups)
T1 sequence (Q03145 26-977): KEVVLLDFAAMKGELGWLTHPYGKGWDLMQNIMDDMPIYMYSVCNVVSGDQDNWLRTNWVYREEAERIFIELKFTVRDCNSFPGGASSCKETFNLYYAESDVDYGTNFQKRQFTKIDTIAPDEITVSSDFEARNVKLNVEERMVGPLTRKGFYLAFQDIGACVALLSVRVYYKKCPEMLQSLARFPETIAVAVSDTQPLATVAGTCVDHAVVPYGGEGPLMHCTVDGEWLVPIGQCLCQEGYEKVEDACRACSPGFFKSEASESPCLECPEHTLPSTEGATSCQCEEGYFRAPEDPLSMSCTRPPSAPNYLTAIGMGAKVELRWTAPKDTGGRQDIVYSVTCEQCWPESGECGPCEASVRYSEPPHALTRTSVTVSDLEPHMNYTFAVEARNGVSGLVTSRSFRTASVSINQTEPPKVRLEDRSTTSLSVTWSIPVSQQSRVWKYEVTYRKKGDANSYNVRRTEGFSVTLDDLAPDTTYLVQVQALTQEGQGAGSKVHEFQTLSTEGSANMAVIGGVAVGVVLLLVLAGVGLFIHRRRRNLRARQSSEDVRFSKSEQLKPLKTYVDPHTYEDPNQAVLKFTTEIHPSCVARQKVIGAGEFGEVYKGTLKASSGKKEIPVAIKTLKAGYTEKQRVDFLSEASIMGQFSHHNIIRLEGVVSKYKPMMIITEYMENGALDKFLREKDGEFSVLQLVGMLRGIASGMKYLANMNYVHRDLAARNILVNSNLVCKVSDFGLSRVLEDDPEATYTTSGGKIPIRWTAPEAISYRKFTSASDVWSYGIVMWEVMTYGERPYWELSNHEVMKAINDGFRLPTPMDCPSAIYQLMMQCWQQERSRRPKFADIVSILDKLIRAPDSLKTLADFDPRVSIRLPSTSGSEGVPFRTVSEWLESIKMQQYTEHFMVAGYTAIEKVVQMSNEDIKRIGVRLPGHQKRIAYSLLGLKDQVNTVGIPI

[5] = molecular target: T1, EphA2; test: Western blot of EphA2 expression in isolated mouse RGCs; conditions: 1 μM, 4 days
Source text: as §1

FTIKFQEFSPNLWGL [xEFN_RBD3]
neurite outgrowth compared to 1 μM xEFN_F1 peptide ([1]; 1 μM, 6-day period): significantly increased | neurite length over control cultures ([1]; 1 μM, after 32 hours of culture): statistically-significant increase | increase in overall neurite length over day 0 measurement ([1]; 1 μM, end of 6-day period): 424.68+/−4.47% | neurite outgrowth compared to EphB2- or EphB4-restricted targeting peptides SNEW and TYFD ([1]; equal concentrations): statistically significant increase | neuroprotection seen by TUBB3 expression versus control in vitro cultures [2]: neuroprotection; also recorded: effectively preserved RGCs | confluence coverage on efnA2 substrate [3]: 120.62+/−10.89% | confluence coverage on efnA4 substrate [3]: 125.83+/−2.92% | confluence coverage on efnB3 substrate [3]: 96.51+/−7.15% | dendritic density (immunohistochemistry) [4]: increase dendritic density | phosphorylation of the EphA2 receptor (immunohistochemistry) [4]: reduced phosphorylation | expression of EphA2 (western blot) [5]: reduced expression; also recorded: effectively decreased expression
